Results published in patent US7279314B2, “Chemical substance having morphogenetic and growth-accelerating activities” (Marine Biotechnology Institute Co., Ltd., priority 2002, dated 2007).

Assays:
[1] = Solubility (physicochemical properties); conditions: for Solubility in hydrated solvent: aqueous methanol or aqueous acetonitrile, percentage range given per compound; for Solubility in less-polar organic solvents: such as hexane or chloroform (Me1H1W4: chloroform and toluene)
Monostroma oxyspermum = test: Minimum effective concentration (MEC) for thallus formation in Monostroma oxyspermum culture; format: cell-based
Description: One ml of modified ASP7 medium was added in the wells of the first row of 48-well microtitre plates (Iwaki, hereafter abbreviated as 48-MTP) and 0.9 ml of modified ASP7 medium was added in the wells of the second and subsequent rows. Eleven μl of the active substance fraction of the target was added individually and mixed well by pipetting in the wells on the first row, followed by adding 100 μl of this mixed solution to the wells on the next row. By repeating this procedures subsequently for 8 to 18 times for each fraction, a ten-fold serial dilution can be prepared in 8 to 18 steps. 100 μl that remained in solution in the wells on the last row was discarded. Here, 100 μl of Monostroma oxyspermum culture medium was diluted subsequently so that the final cell concentration of 10 to 20 cells per 1 ml, was delivered to all wells of 48-MTP to bring the total amount of solution to 1 ml. […] The MEC is used as an index for isolation.
Similar to the case of Example 1, isolated and purified novel chemical substance 1 was serially diluted in 16 steps starting with the final concentration of 1 μg/ml. At this time, the Monostroma oxyspermum cell number was adjusted to be 20 cells per 1 ml of the medium. Fresh pipet tips were used for each step dilution. Three sets of these series were prepared and were cultivated for 3 days under the same condition as Example 1. […] Based on this, the MEC of the novel chemical substance 1 will be as follows.
Similar to Example 5, the MEC of the novel chemical substance 1 and its derivatives are measured and the results are shown below.

[2] = test system: Enteromorpha intestinalis; test: Culturing experiment of Enteromorpha intestinalis; format: cell-based; conditions: 1 ng/ml in ASP7 medium, vs control group without addition (FIG. 16)
Description: (§1) Spores obtained from the Ulva pertusa and Enteromorpha intestinalis collected from Miho Shimizu-city, Shizuoka were washed using their phototaxis activity in the ASP7 medium supplemented with the antibiotics, and then were transferred to rectangular petri dishes filled with sterilized covered glasses and aseptized for 5 days. When the free-living cells had attached to the cover glasses and had start growing, each cover glass was placed in each hole of 6-MTP, followed by adding 10 ml of the ASP7 medium not supplemented with antibiotics. For a test group, the novel chemical substance 1 was added to result in 1 ng/ml and for the control group, nothing was added. They were incubtaed for 7 days under the same conditions as in Example 1. […], the cover glasses of the test group and control section were transferred to the culture test tube containing the medium prepared under the same condition to further incubate another 7 days. […] In addition, the ASP7 medium supplemented with antibiotics is an ASP medium, having the following composition and containing 2% antibiotics.

[3] = Stability of the substances; format: physicochemical
Ulva pertusa = test: Culturing experiment of Ulva pertusa; format: cell-based; conditions: 1 ng/ml in ASP7 medium, vs control group without addition (FIG. 15)
Description: as §1

[4] = thallus formation of Monostroma oxyspermum, measured similar to Example 5

Row | Compound | Solubility in hydrated solvent [1] | Solubility in less-polar organic solvents [1] | Solubility in water [1] | MEC (Monostroma oxyspermum; [4]) | Solubility in DMSO ([1]; DMSO) | Development and thallus formation [2] | MEC (Monostroma oxyspermum; cultivated for 3 days, 20 cells per 1 ml, thallus formation at 12-step ten-fold dilution from 1 μg/ml) | MEC after 10 days cultivation (Monostroma oxyspermum; cultivated for 10 days, six-step dilution from 1 μg/ml) | Thallus state (Monostroma oxyspermum; seven-step dilution, final concentration 1×10^−7 μg/ml, cultivated for 10 days (FIG. 13)) | Thallus state (Monostroma oxyspermum; six-step dilution, final concentration 1×10^−6 μg/ml, cultivated for 10 days (FIG. 14)) | Stability ([3]; general statement) | Stability ([3]; substance induced under alkali condition) | Development and thallus formation (Ulva pertusa) | Solubility in non-polar solvent ([1]; such as hexane)
1 | CC1(C)CCC[C@]2(C)C3CC(c4ccc(CO)nc4CO)=C(CO)O[C@]3(C)CC[C@@H]12 (stereo partly shown) [Me1H1] | soluble | soluble | hardly soluble | No activity |  |  |  |  |  |  |  |  |  | 
2 | COC(=O)C1=C(c2ccc(C(=O)OC)nc2C(=O)OC)CC2[C@@](C)(CC[C@H]3C(C)(C)CCC[C@]23C)O1 (stereo partly shown) [Me1] | soluble | hardly soluble | hardly soluble | 10^−4 μg/ml | hardly soluble |  |  |  |  |  |  |  |  | 
3 | CC1(C)CCC[C@]2(C)C3CC(c4ccc(C(=O)O)nc4C(=O)O)=C(C(=O)O)O[C@]3(C)CC[C@@H]12 (stereo partly shown) [Novel Chemical Substance 1] |  |  |  | 10^−12 μg/ml |  | normal development and thallus formation were observed | 1 ag/ml | 1 pg/mL | the disrupted thallus is observed | The thallus was maintained without being collapsed | quite stable | relatively stable | normal development and thallus formation were observed | 
4 | CC1(C)CCC[C@]2(C)C3C[C@H]4c5ccc(CO)nc5CO[C@@]4(CO)O[C@]3(C)CC[C@@H]12 (stereo partly shown) [Me1H1W4] | soluble | soluble | Poorly soluble |  |  |  |  |  |  |  |  |  |  | hardly soluble
